# Assay results: article PMC8525843 (Investigative Ophthalmology & Visual Science, 2021)
# Experiments:
# [1] = system: hypertonic saline-induced ocular hypertensive NZW rabbits; experiment: IOP-lowering effect in hypertonic saline-induced ocular hypertensive NZW rabbits; format: in vivo, rabbit; settings: 0.02%; at 1.5 hours; vs saline
# rabbit eyes = settings: after administration; cited from earlier work
# patients = settings: clinical data; cited from earlier work
smiles,measurement,setting,value
"Cc1ccc(C(=O)OCc2ccc([C@@H](CN)C(=O)Nc3ccc4cnccc4c3)cc2)c(C)c1 [AR-13324, netarsudil]",Emax of IOP reduction,[1],12.1 ± 0.9 mm Hg
O=S(=O)(c1cccc2c(Cl)cccc12)N1CCCNCC1 [ML-9],IOP of rabbit eyes,rabbit eyes,decreased in a dose-dependent manner
"C[C@H]1CNCCCN1S(=O)(=O)c1cccc2cncc(F)c12 [ripasudil, Ripasudil]",time for conjunctival hyperemia to resolve spontaneously,patients,≤ 4 h
